Species: Rattus norvegicus
Experiment: Open TG-GATES - Regimen: Daily Repeat
Format: toxicity, organism-based, Sprague-Dawley
Set-up: regimen Daily Repeat, gender Male, age 6 weeks
Conditions: in vivo, po, 15 mg/kg, route gavage, dose level Low; for APTT / Bas / Eos / Fbg / Hb / Ht / Lym / MCH / MCHC / MCV / Mono / Neu / PT / Plat / RBC / Ret / WBC: tissue Blood; for KIDNEY_L / KIDNEY_R / KIDNEY_TOTAL: tissue Kidney; for LIVER: tissue Liver; for A/G / ALP / ALT / AST / BUN / CRE / Ca / Cl / DBIL / GLC / IP / K / LDH / Na / PL / RALB / TBIL / TC / TG / TP / gamma-GTP: tissue Plasma

O=c1ccc2ccccc2o1 [COUMARIN]
TERMINAL_BW (72 h, time 3 day): 198.3 g
APTT (72 h, time 3 day): 15.1 s
Bas (72 h, time 3 day): 0%
Eos (72 h, time 3 day): 1%
Fbg (72 h, time 3 day): 192.4 mg/dL
Hb (72 h, time 3 day): 13.1 g/dL
Ht (72 h, time 3 day): 39.5%
Lym (72 h, time 3 day): 72.2%
MCH (72 h, time 3 day): 21.5 pg
MCHC (72 h, time 3 day): 33.2%
MCV (72 h, time 3 day): 64.8 fL
Mono (72 h, time 3 day): 9.8%
Neu (72 h, time 3 day): 17%
PT (72 h, time 3 day): 11.6 s
Plat (72 h, time 3 day): 110.7 x10_4/uL
RBC (72 h, time 3 day): 608.6 x10_4/ul
Ret (72 h, time 3 day): 7.9%
WBC (72 h, time 3 day): 108.8 x10_2/uL
KIDNEY_L (72 h, time 3 day): 0.9 g
KIDNEY_R (72 h, time 3 day): 0.9 g
KIDNEY_TOTAL (72 h, time 3 day): 1.8 g
LIVER (72 h, time 3 day): 10.1 g
A/G (72 h, time 3 day): 2.1
ALP (72 h, time 3 day): 921.6 IU/L
ALT (72 h, time 3 day): 40.6 IU/L
AST (72 h, time 3 day): 68 IU/L
BUN (72 h, time 3 day): 14.8 mg/dL
CRE (72 h, time 3 day): 0.5 mg/dL
Ca (72 h, time 3 day): 10.8 mg/dL
Cl (72 h, time 3 day): 104.6 meq/L
DBIL (72 h, time 3 day): 0.02 mg/dL
GLC (72 h, time 3 day): 190 mg/dL
IP (72 h, time 3 day): 8.3 mg/dL
K (72 h, time 3 day): 4.9 meq/L
LDH (72 h, time 3 day): 78.2 IU/L
Na (72 h, time 3 day): 138.8 meq/L
PL (72 h, time 3 day): 150 mg/dL
RALB (72 h, time 3 day): 3.7 g/dL
TBIL (72 h, time 3 day): 0.3 mg/dL
TC (72 h, time 3 day): 89.2 mg/dL
TG (72 h, time 3 day): 68 mg/dL
TP (72 h, time 3 day): 5.5 g/dL
gamma-GTP (72 h, time 3 day): 1.6 IU/L
TERMINAL_BW ([…], time 7 day): 228.4 g
TERMINAL_BW ([…], time 14 day): 282.9 g
TERMINAL_BW ([…], time 28 day): 347.7 g
APTT ([…], time 7 day): 16 s
Bas ([…], time 7 day): 0%
Eos ([…], time 7 day): 1%
Fbg ([…], time 7 day): 223.8 mg/dL
Hb ([…], time 7 day): 13.9 g/dL
Ht ([…], time 7 day): 42%
Lym ([…], time 7 day): 81.6%
MCH ([…], time 7 day): 21.3 pg
MCHC ([…], time 7 day): 33%
MCV ([…], time 7 day): 64.4 fL
Mono ([…], time 7 day): 5.2%
Neu ([…], time 7 day): 12.4%
PT ([…], time 7 day): 11.5 s
Plat ([…], time 7 day): 119 x10_4/uL
RBC ([…], time 7 day): 653.2 x10_4/ul
Ret ([…], time 7 day): 6.1%
WBC ([…], time 7 day): 129.6 x10_2/uL
APTT ([…], time 14 day): 17.1 s
Bas ([…], time 14 day): 0%
Eos ([…], time 14 day): 0.6%
Fbg ([…], time 14 day): 225.6 mg/dL
Hb ([…], time 14 day): 13.9 g/dL
Ht ([…], time 14 day): 41.8%
Lym ([…], time 14 day): 82.6%
MCH ([…], time 14 day): 20.4 pg
MCHC ([…], time 14 day): 33.3%
MCV ([…], time 14 day): 61.2 fL
Mono ([…], time 14 day): 4.8%
Neu ([…], time 14 day): 12%
PT ([…], time 14 day): 11.4 s
Plat ([…], time 14 day): 118.1 x10_4/uL
RBC ([…], time 14 day): 683 x10_4/ul
Ret ([…], time 14 day): 4.8%
WBC ([…], time 14 day): 144.2 x10_2/uL
APTT ([…], time 28 day): 18.3 s
Bas ([…], time 28 day): 0%
Eos ([…], time 28 day): 1.2%
Fbg ([…], time 28 day): 217.2 mg/dL
Hb ([…], time 28 day): 14.8 g/dL
Ht ([…], time 28 day): 44%
Lym ([…], time 28 day): 80%
MCH ([…], time 28 day): 19.9 pg
MCHC ([…], time 28 day): 33.5%
MCV ([…], time 28 day): 59.3 fL
Mono ([…], time 28 day): 8%
Neu ([…], time 28 day): 11%
PT ([…], time 28 day): 11.8 s
Plat ([…], time 28 day): 108.5 x10_4/uL
RBC ([…], time 28 day): 743.6 x10_4/ul
Ret ([…], time 28 day): 3%
WBC ([…], time 28 day): 134.3 x10_2/uL
KIDNEY_L ([…], time 7 day): 1 g
KIDNEY_R ([…], time 7 day): 1 g
KIDNEY_TOTAL ([…], time 7 day): 2 g
KIDNEY_L ([…], time 14 day): 1.1 g
KIDNEY_R ([…], time 14 day): 1.1 g
KIDNEY_TOTAL ([…], time 14 day): 2.3 g
KIDNEY_L ([…], time 28 day): 1.3 g
KIDNEY_R ([…], time 28 day): 1.3 g
KIDNEY_TOTAL ([…], time 28 day): 2.6 g
LIVER ([…], time 7 day): 11.6 g
LIVER ([…], time 14 day): 14.2 g
LIVER ([…], time 28 day): 16.4 g
A/G ([…], time 7 day): 2.1
ALP ([…], time 7 day): 1042 IU/L
ALT ([…], time 7 day): 34.2 IU/L
AST ([…], time 7 day): 53.8 IU/L
BUN ([…], time 7 day): 16 mg/dL
CRE ([…], time 7 day): 0.5 mg/dL
Ca ([…], time 7 day): 10.9 mg/dL
Cl ([…], time 7 day): 104.8 meq/L
DBIL ([…], time 7 day): 0.022 mg/dL
GLC ([…], time 7 day): 192 mg/dL
IP ([…], time 7 day): 7.4 mg/dL
K ([…], time 7 day): 5 meq/L
LDH ([…], time 7 day): 85.4 IU/L
Na ([…], time 7 day): 138.4 meq/L
PL ([…], time 7 day): 178.6 mg/dL
RALB ([…], time 7 day): 4 g/dL
TBIL ([…], time 7 day): 0.3 mg/dL
TC ([…], time 7 day): 97.6 mg/dL
TG ([…], time 7 day): 96 mg/dL
TP ([…], time 7 day): 6 g/dL
gamma-GTP ([…], time 7 day): 2 IU/L
A/G ([…], time 14 day): 1.9
ALP ([…], time 14 day): 761.8 IU/L
ALT ([…], time 14 day): 40 IU/L
AST ([…], time 14 day): 59 IU/L
BUN ([…], time 14 day): 18.2 mg/dL
CRE ([…], time 14 day): 0.5 mg/dL
Ca ([…], time 14 day): 10.9 mg/dL
Cl ([…], time 14 day): 106 meq/L
DBIL ([…], time 14 day): 0.042 mg/dL
GLC ([…], time 14 day): 194.6 mg/dL
IP ([…], time 14 day): 6.6 mg/dL
K ([…], time 14 day): 5.1 meq/L
LDH ([…], time 14 day): 87 IU/L
Na ([…], time 14 day): 138.2 meq/L
PL ([…], time 14 day): 171.2 mg/dL
RALB ([…], time 14 day): 4 g/dL
TBIL ([…], time 14 day): 0.3 mg/dL
TC ([…], time 14 day): 84.4 mg/dL
TG ([…], time 14 day): 116.8 mg/dL
TP ([…], time 14 day): 6.1 g/dL
gamma-GTP ([…], time 14 day): 1.2 IU/L
A/G ([…], time 28 day): 1.7
ALP ([…], time 28 day): 681.4 IU/L
ALT ([…], time 28 day): 33.2 IU/L
AST ([…], time 28 day): 52.4 IU/L
BUN ([…], time 28 day): 19.6 mg/dL
CRE ([…], time 28 day): 0.6 mg/dL
Ca ([…], time 28 day): 10.8 mg/dL
Cl ([…], time 28 day): 107.4 meq/L
DBIL ([…], time 28 day): 0.012 mg/dL
GLC ([…], time 28 day): 187.6 mg/dL
IP ([…], time 28 day): 6.7 mg/dL
K ([…], time 28 day): 4.3 meq/L
LDH ([…], time 28 day): 46.4 IU/L
Na ([…], time 28 day): 139.4 meq/L
PL ([…], time 28 day): 145.6 mg/dL
RALB ([…], time 28 day): 4.2 g/dL
TBIL ([…], time 28 day): 0.4 mg/dL
TC ([…], time 28 day): 70.8 mg/dL
TG ([…], time 28 day): 123.8 mg/dL
TP ([…], time 28 day): 6.6 g/dL
gamma-GTP ([…], time 28 day): 1 IU/L
